Source: patent publication US8399465B2, “Compounds with two fused bicyclic heteroaryl moieties as modulators of leukotriene A4 hydrolase” (Janssen Pharmaceutica NV, priority 2009, dated 2013)

Legend:
[1] = molecular target: T1, recombinant human LTA4 hydrolase (rhLTA4H) (Homo sapiens, UniProt P09960); experiment: Recombinant human LTA4 hydrolase assay for LTA4 hydrolase inhibitor activity; format: biochemical; details: rhLTA4H, LTB4 by immunoassay; single determination or average of two or more; mark after value = form tested: ′ free base, ″ hydrochloride, ^ formate; read-out: IC50
T1 construct: made in house; host or cells: Spodoptera frugiperda (Sf-9) cells, baculovirus (pFastBac1)
T1 sequence (P09960 1-611): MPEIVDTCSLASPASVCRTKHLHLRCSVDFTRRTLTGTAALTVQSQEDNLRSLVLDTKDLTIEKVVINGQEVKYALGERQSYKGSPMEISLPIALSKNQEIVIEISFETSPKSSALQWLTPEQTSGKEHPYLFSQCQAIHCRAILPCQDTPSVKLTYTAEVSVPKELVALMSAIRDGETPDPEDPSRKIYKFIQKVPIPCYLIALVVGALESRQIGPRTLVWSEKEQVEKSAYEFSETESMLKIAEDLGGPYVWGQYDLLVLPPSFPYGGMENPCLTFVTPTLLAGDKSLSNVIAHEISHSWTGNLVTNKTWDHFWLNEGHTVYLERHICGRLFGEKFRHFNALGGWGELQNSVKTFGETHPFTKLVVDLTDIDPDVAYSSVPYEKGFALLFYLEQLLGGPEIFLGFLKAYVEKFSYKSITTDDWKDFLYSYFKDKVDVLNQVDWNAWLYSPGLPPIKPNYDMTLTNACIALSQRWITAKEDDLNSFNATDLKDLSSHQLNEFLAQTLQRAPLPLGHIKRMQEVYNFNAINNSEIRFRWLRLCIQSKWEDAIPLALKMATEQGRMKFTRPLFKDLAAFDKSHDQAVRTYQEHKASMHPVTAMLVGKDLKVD
How it was run: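 Baculovirus/Sf-9-expressed human LTA4H (10 ng) was preincubated 10 min at rt with compound in assay buffer (10% DMSO in compound dilution), then reacted 30 min at rt with LTA4 free acid made from its methyl ester. LTB4 produced was measured by ELISA after dilution; IC50 from non-linear regression, single or averaged determinations.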

[2] = tested on: LTB4 production in murine blood (LTA4H); experiment: LTB4 production by calcium ionophore-stimulated murine blood for LTA4H inhibitor activity; format: cell-based, CD-1 mice; details: Mus musculus; murine blood diluted 1 in 15, A23187 stimulated; single determination or average; mark after value = form tested: ′ free base, ″ hydrochloride, ^ formate; read-out: IC50
Procedure: Assay 2: LTB4 Production by Calcium Ionophore-Stimulated Murine Blood for LTA4H Inhibitor Activity
CD-1 mice were sacrificed, and blood was collected in heparin-containing syringes by cardiac puncture. […] After the microtiter plate contents were incubated for 15 min at 37° C. in a humidified incubator, calcium ionophore A23187 (Sigma Chemical Co., St. Louis, Mo.) was added to each sample well (final concentration=7 μg/mL). The incubation was continued under the same conditions for an additional 30 min to allow LTB4 formation. The reaction was terminated by centrifugation (833×g, 10 min at 4° C.), and supernatants were analyzed for LTB4 by a commercially available enzyme-linked immunoassay (Cayman Chemical Co.) according to the manufacturer's instructions. Positive controls, under essentially identical conditions but without addition of an inhibitor compound, and negative unstimulated controls, containing all assay components except calcium ionophore, were routinely run in each experiment. […] The values presented here are the result of a single determination or an average of two or more determinations.

For `c1ccc2c(c1)CN(Cc1c[nH]c3cc(Oc4nc5ccccc5s4)ccc13)C2` [Example 6, 2-[3-(1,3-Dihydro-isoindol-2-ylmethyl)-1H-indol-6-yloxy]-benzothiazole], the IC50 [1] was 0.017 µM and the IC50 [2] was 0.968 µM.
`c1ccc2c(c1)CCN(Cc1c[nH]c3cc(Oc4nc5ccccc5s4)ccc13)C2` [Example 7, 2-[6-(Benzothiazol-2-yloxy)-1H-indol-3-ylmethyl]-1,2,3,4-tetrahydro-isoquinoline] gave an IC50 [1] of 0.042 µM and an IC50 [2] of 0.476 µM.
`c1ccc(C2CCN(Cc3c[nH]c4cc(Oc5nc6ccccc6s5)ccc34)CC2)cc1` [Example 8, 2-[3-(4-Phenyl-piperidin-1-ylmethyl)-1H-indol-6-yloxy]-benzothiazole] showed an IC50 [1] of 0.011 µM and an IC50 [2] of 1.14 µM.
For `c1ccc2sc(Oc3ccc4c(CN5C[C@@H]6C[C@H]5CO6)c[nH]c4c3)nc2c1` [Example 12, (1S,4S)-2-[3-(2-Oxa-5-aza-bicyclo[2.2.1]hept-5-ylmethyl)-1H-indol-6-yloxy]-benzothiazole], the IC50 [1] was 0.013 µM and the IC50 [2] was 0.25 µM.
`CC(=O)N[C@H]1C[C@H]2CC[C@@H](C1)N2Cc1c[nH]c2cc(Oc3nc4ccccc4s3)ccc12` [Example 13, meso-endo-N-{8-[6-(Benzothiazol-2-yloxy)-1H-indol-3-ylmethyl]-8-aza-bicyclo[3.2.1]oct-3-yl}-acetamide] was tested, and the IC50 [1] was 0.002 µM and the IC50 [2] was 0.1 µM.
For `c1ccc2oc(Oc3ccc4c(CN5CCCCC5)c[nH]c4c3)nc2c1` [Example 15, 2-(3-Piperidin-1-ylmethyl-1H-indol-6-yloxy)-benzooxazole], the IC50 [1] was 0.013 µM and the IC50 [2] was 0.152 µM.
For `c1cnc2nc(Oc3ccc4c(CN5CCCCC5)c[nH]c4c3)sc2c1` [Example 16, 2-(3-Piperidin-1-ylmethyl-1H-indol-6-yloxy)-thiazolo[4,5-b]pyridine], the IC50 [1] was 0.003 µM and the IC50 [2] was 0.017 µM.
`NC(=O)C1CCN(Cc2c[nH]c3cc(Oc4nc5ncccc5s4)ccc23)CC1` [Example 17, 1-[6-(Thiazolo[4,5-b]pyridin-2-yloxy)-1H-indol-3-ylmethyl]-piperidine-4-carboxylic acid amide] showed an IC50 [1] of 0.002 µM and an IC50 [2] of 0.118 µM.
For `CC(=O)N[C@H]1C[C@H]2CC[C@@H](C1)N2Cc1c[nH]c2cc(Oc3nc4ncccc4s3)ccc12` [Example 18, meso-endo-N-{8-[6-(Thiazolo[4,5-b]pyridin-2-yloxy)-1H-indol-3-ylmethyl]-8-aza-bicyclo[3.2.1]oct-3-yl}-acetamide], the IC50 [1] was 0.001 µM and the IC50 [2] was 0.301 µM.
`CC(=O)N1C[C@@H]2C[C@H]1CN2Cc1c[nH]c2cc(Oc3nc4ncccc4s3)ccc12` [Example 19, (1S,4S)-1-{5-[6-(Thiazolo[4,5-b]pyridin-2-yloxy)-1H-indol-3-ylmethyl]-2,5-diaza-bicyclo[2.2.1]hept-2-yl}-ethanone] gave an IC50 [1] of 0.002 µM and an IC50 [2] of 0.104 µM.
`O=C1CCCN1C1CCN(Cc2c[nH]c3cc(Oc4nc5ncccc5s4)ccc23)CC1` [Example 20, 1-{1-[6-(Thiazolo[4,5-b]pyridin-2-yloxy)-1H-indol-3-ylmethyl]-piperidin-4-yl}-pyrrolidin-2-one] was tested, and the IC50 [1] was 0.002 µM and the IC50 [2] was 0.081 µM.
Compound `NC(=O)C1CCN(Cc2c[nH]c3cc(Oc4nc5ccccc5s4)ccc23)CC1` [Example 21, 1-[6-(Benzothiazol-2-yloxy)-1H-indol-3-ylmethyl]-piperidine-4-carboxylic acid amide] has an IC50 [1] of 0.005 µM and an IC50 [2] of 0.161 µM.
Compound `CNC(=O)C1CCN(Cc2c[nH]c3cc(Oc4nc5ccccc5s4)ccc23)CC1` [Example 22, 1-[6-(Benzothiazol-2-yloxy)-1H-indol-3-ylmethyl]-piperidine-4-carboxylic acid methylamide] has an IC50 [1] of 0.002 µM and an IC50 [2] of 0.079 µM.
`O=C(C1CCN(Cc2c[nH]c3cc(Oc4nc5ccccc5s4)ccc23)CC1)N1CCCC1` [Example 23, {1-[6-(Benzothiazol-2-yloxy)-1H-indol-3-ylmethyl]-piperidin-4-yl}-pyrrolidin-1-yl-methanone] was tested, and the IC50 [1] was 0.005 µM and the IC50 [2] was 0.114 µM.
